Test results from patent US9833455B2, “Preparation and methods of use for ortho-aryl 5-membered heteroaryl-carboxamide containing multi-targeted kinase inhibitors” (Spacefill Enterprises LLC, priority 2011, dated 2017).
Blank lines part the entries; values can stand above or below the compound they belong to.

Columns and labels:
CRAF = CRAF (Homo sapiens, UniProt P04049); assay: Nanosyn kinase profiling, % inhibition; type: biochemical; conditions: panel of 230 kinases
Procedure: (§1) “Inhibiting kinase activity” means to decrease the production of an phosphor-peptide by a particular kinase that can be separated by analytical techniques. For example, a comprehensive platform of kinase, protease, phosphatase and epigenetic assays that utilizes cutting-edge microfluidics and informatics tools to provide accurate and rapid results. Profiling data in this application were determined using these techniques at Nanosyn Inc. IC50 data were provided by Reaction Biology Inc using a P33 radiolabeled kinase assay.
(§2) A total of 15 new inhibitors were designed, prepared, and evaluated against a panel of 29 selected kinases in order to explore the applicability, SAR trends, and the tunability of this scaffold that could be imposed but this unique geometry, Table 21. Inhibitors I-1 to 1-12 all retained the 2-CF3-5-(4-F-phenyl) imidazole-4-carboxamide scaffold previously described (Deitrich, 2010), but explored different Hinge-Gatekeeper Motifs (HGM).
(§3) More modest activity for Aurora-A, FLT-1/4, KDR, KIT, PDGFRs was accompanied by better activity for B-Raf mutant and wild-type forms, Modest inhibition of MEK-1, BTK, c-Met, RET, and RON was also observed. […] Moreover, the observed inhibition of MEK-1 with 1-12 and TYK2 with I-6 represents additional activities against kinases for which no type-II inhibitors have been reported to date. […] To further evaluate the scope of inhibition, I-6 was evaluated against a larger panel of 230 kinases, Table-22.

RON = RON (Homo sapiens, UniProt Q04912); assay: Nanosyn kinase profiling, % inhibition; type: biochemical; conditions: panel of 230 kinases
Procedure: as §1, §2, §3

FMS = FMS (Homo sapiens, UniProt P07333); assay: Nanosyn kinase profiling, % inhibition; type: biochemical; conditions: panel of 230 kinases
Procedure: as §1, §2, §3

MET = MET (Homo sapiens, UniProt P08581); assay: Nanosyn kinase profiling, % inhibition; type: biochemical; conditions: panel of 230 kinases
Procedure: as §1, §2, §3

P38-α = P38-α (Homo sapiens, UniProt Q16539); assay: Nanosyn kinase profiling, % inhibition; type: biochemical; conditions: panel of 230 kinases
Sequence of P38-α (Q16539 whole entry): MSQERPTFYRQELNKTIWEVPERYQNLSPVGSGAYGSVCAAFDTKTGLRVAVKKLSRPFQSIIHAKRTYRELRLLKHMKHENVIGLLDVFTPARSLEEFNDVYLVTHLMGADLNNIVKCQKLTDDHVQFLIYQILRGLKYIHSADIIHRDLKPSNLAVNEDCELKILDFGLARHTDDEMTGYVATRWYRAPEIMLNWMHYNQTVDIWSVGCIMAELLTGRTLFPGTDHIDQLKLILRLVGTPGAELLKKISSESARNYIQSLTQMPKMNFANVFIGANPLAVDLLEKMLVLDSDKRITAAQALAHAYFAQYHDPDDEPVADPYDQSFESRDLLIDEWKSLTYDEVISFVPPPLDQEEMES
Procedure: as §1, §2, §3

FLT1 = FLT1 (Homo sapiens, UniProt P17948); assay: Nanosyn kinase profiling, % inhibition; type: biochemical; conditions: panel of 230 kinases
Procedure: as §1, §2, §3

PDGFR-α = PDGFR-α (Homo sapiens, UniProt P16234); assay: Nanosyn kinase profiling, % inhibition; type: biochemical; conditions: panel of 230 kinases
Procedure: as §1, §2, §3

FLT3 = FLT3 (Homo sapiens, UniProt P36888); assay: Nanosyn kinase profiling, % inhibition; type: biochemical; conditions: panel of 230 kinases
Procedure: as §1, §2, §3

FLT4 = FLT4 (Homo sapiens, UniProt P35916); assay: Nanosyn kinase profiling, % inhibition; type: biochemical; conditions: panel of 230 kinases
Procedure: as §1, §2, §3

DDR2 = target: T1, DDR2 (Homo sapiens, UniProt Q16832); assay: Nanosyn kinase profiling, % inhibition; type: biochemical; conditions: panel of 230 kinases
T1 sequence (Q16832 22-855): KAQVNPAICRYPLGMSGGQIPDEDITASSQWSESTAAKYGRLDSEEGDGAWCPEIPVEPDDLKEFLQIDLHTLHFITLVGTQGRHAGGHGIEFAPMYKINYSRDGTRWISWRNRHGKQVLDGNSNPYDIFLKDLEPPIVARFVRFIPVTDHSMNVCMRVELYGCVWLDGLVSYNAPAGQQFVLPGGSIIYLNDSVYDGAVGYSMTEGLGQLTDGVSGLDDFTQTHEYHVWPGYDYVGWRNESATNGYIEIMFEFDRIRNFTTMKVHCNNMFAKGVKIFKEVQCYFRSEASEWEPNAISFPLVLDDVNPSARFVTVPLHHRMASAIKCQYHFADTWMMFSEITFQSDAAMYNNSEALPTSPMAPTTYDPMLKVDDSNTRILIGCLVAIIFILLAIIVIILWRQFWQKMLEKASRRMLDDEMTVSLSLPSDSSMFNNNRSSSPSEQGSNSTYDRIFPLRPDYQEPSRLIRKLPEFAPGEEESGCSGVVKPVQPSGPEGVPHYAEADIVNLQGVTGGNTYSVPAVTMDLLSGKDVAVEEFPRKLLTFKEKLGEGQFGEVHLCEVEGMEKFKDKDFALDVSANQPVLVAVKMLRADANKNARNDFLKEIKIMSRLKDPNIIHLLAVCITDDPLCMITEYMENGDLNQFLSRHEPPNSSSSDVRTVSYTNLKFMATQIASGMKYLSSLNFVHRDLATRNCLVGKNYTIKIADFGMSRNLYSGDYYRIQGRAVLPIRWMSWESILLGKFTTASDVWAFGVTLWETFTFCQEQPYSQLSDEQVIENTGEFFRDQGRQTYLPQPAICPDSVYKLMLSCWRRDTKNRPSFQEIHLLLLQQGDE
Procedure: as §1, §2, §3

RET = RET (Homo sapiens, UniProt P07949); assay: Nanosyn kinase profiling, % inhibition; type: biochemical; conditions: panel of 230 kinases
Procedure: as §1, §2, §3

KIT [1] = target: T2, KIT (Homo sapiens, UniProt P10721); assay: Nanosyn kinase profiling, % inhibition; type: biochemical; conditions: panel of 230 kinases
T2 sequence (P10721 26-976): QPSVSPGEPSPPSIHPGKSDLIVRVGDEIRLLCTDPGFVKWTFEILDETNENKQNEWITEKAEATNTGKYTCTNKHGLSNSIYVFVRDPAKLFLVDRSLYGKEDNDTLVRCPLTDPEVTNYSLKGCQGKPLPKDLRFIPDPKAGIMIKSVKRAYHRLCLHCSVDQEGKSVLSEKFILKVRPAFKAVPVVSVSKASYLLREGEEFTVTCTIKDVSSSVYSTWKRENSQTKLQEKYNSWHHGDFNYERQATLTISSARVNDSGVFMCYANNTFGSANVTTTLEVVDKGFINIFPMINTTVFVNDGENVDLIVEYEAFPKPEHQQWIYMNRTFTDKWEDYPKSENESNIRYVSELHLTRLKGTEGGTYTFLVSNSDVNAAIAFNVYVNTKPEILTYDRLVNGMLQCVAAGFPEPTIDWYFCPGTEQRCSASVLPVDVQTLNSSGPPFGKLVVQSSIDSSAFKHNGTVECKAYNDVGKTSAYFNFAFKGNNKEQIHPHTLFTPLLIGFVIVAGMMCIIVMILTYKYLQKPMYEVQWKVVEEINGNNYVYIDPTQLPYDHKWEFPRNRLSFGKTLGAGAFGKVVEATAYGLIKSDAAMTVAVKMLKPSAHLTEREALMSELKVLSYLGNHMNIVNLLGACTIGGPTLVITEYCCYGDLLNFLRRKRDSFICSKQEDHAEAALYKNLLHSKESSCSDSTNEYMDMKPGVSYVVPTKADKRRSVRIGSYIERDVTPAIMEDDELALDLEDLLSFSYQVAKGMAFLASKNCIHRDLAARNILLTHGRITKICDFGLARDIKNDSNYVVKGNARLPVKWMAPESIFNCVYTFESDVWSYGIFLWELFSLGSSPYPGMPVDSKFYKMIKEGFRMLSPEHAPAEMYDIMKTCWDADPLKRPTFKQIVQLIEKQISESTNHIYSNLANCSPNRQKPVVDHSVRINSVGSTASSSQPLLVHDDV
Procedure: as §1, §2, §3

EPHA2 = EPHA2 (Homo sapiens, UniProt P29317); assay: Nanosyn kinase profiling, % inhibition; type: biochemical; conditions: panel of 230 kinases
Procedure: as §1, §2, §3

KDR = KDR (Homo sapiens, UniProt P35968); assay: Nanosyn kinase profiling, % inhibition; type: biochemical; conditions: panel of 230 kinases
Procedure: as §1, §2, §3

KIT [2] = target: T2, KIT; conditions: 1 μM, duplicate, without preincubation; cited from earlier work
p38-alpha = target: T3, p38-alpha (Homo sapiens, UniProt Q16539); conditions: 1 μM, duplicate, without preincubation; cited from earlier work
T3 construct: literature Ambit Biosciences
T3 sequence (Q16539 whole entry): as the sequence (Q16539 whole entry) above

BRAF = target: T4, BRAF (Homo sapiens, UniProt P15056); conditions: 1 μM, duplicate, without preincubation; cited from earlier work
T4 construct: literature Ambit Biosciences
T4 sequence (P15056 whole entry): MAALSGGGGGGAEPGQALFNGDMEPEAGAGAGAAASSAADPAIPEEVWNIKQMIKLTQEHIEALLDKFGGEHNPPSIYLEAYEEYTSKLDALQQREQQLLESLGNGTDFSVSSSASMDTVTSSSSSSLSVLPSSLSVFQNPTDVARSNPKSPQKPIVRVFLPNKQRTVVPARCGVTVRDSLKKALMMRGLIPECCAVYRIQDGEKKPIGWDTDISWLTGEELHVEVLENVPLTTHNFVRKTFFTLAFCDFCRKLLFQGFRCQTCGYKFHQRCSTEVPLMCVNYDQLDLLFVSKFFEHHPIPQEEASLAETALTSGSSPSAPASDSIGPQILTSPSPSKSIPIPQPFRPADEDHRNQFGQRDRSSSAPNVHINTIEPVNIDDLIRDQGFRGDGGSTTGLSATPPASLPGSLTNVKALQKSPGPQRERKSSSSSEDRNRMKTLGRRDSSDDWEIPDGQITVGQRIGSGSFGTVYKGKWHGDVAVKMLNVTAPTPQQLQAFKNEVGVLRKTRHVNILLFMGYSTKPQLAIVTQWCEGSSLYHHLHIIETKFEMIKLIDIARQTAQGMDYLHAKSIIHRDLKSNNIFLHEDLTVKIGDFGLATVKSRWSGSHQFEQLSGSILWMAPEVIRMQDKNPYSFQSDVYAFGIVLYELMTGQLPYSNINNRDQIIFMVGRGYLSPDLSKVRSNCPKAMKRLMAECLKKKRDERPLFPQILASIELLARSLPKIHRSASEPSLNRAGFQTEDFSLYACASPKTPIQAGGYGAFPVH

CDK11 = target: T5, CDK11 (Homo sapiens, UniProt Q9BWU1); conditions: 1 μM, duplicate, without preincubation; cited from earlier work
T5 construct: literature Ambit Biosciences
T5 sequence (Q9BWU1 whole entry): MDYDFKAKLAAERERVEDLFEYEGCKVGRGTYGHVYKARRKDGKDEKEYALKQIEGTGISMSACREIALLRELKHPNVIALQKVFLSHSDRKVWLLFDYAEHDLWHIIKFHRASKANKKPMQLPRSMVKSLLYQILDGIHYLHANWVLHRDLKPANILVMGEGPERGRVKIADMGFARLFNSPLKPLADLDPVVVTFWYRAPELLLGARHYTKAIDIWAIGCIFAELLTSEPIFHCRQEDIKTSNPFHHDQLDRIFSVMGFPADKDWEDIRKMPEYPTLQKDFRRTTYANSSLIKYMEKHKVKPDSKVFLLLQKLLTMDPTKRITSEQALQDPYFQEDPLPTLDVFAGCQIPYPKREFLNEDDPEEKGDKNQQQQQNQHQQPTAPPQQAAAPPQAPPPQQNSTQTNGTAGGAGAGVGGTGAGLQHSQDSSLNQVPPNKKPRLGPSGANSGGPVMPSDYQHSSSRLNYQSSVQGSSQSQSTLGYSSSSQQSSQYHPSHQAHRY

PDGFRB = target: T6, PDGFRB (Homo sapiens, UniProt P09619); conditions: 1 μM, duplicate, without preincubation; cited from earlier work
T6 construct: literature Ambit Biosciences
T6 sequence (P09619 33-1106): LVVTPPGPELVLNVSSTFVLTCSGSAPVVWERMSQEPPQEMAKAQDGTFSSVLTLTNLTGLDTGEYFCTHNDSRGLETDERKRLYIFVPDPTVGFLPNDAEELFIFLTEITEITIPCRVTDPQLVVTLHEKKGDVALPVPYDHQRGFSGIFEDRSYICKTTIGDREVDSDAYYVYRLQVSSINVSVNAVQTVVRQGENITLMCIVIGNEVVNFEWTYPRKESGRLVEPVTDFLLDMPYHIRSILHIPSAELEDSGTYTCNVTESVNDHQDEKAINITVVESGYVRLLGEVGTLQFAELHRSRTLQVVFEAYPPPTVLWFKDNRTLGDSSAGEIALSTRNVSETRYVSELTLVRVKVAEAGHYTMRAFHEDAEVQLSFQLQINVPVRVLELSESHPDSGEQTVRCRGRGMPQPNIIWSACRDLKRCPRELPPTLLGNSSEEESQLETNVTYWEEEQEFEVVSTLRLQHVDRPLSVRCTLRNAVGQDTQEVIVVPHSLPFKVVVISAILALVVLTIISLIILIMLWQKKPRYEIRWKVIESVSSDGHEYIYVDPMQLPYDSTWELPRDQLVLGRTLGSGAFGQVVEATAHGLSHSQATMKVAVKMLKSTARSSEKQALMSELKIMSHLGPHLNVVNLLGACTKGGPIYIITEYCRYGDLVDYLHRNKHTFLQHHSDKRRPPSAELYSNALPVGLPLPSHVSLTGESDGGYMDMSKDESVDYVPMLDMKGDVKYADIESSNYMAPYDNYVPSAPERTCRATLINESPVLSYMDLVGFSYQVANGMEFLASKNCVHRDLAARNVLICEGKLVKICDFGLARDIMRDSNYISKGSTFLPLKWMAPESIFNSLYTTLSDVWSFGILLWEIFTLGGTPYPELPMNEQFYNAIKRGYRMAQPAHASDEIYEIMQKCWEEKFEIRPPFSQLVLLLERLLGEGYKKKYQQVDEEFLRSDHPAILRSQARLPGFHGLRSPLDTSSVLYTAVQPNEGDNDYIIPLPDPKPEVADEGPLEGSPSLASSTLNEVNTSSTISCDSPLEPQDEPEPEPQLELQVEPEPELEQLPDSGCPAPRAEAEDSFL

CSF1R = target: T7, CSF1R (Homo sapiens, UniProt P07333); conditions: 1 μM, duplicate, without preincubation; cited from earlier work
T7 construct: literature Ambit Biosciences

ERBB4 = target: T8, ERBB4 (Homo sapiens, UniProt Q15303); conditions: 1 μM, duplicate, without preincubation; cited from earlier work
T8 construct: literature Ambit Biosciences

MKNK1 = target: T9, MKNK1 (Homo sapiens, UniProt Q9BUB5); conditions: 1 μM, duplicate, without preincubation; cited from earlier work
T9 construct: literature Ambit Biosciences
T9 sequence (Q9BUB5 whole entry): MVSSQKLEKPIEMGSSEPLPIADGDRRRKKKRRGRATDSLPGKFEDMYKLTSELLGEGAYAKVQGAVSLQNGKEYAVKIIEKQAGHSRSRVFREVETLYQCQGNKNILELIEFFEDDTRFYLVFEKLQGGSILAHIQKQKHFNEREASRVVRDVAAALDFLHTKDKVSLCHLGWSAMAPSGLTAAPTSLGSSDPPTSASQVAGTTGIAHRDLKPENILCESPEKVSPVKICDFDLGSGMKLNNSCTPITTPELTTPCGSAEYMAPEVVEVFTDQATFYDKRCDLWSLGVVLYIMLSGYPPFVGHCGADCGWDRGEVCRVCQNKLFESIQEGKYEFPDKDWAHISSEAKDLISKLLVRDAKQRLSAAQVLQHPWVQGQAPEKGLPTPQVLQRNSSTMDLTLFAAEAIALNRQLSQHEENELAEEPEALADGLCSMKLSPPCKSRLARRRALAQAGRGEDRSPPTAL

CDK3 = target: T10, CDK3 (Homo sapiens, UniProt Q00526); conditions: 1 μM, duplicate, without preincubation; cited from earlier work
T10 construct: literature Ambit Biosciences

IKK-alpha = target: T11, IKK-alpha (Homo sapiens, UniProt O15111); conditions: 1 μM, duplicate, without preincubation; cited from earlier work
T11 construct: literature Ambit Biosciences

ULK2 = target: T12, ULK2 (Homo sapiens, UniProt Q8IYT8); conditions: 1 μM, duplicate, without preincubation; cited from earlier work
T12 construct: literature Ambit Biosciences

Sequence of CRAF (P04049 whole entry): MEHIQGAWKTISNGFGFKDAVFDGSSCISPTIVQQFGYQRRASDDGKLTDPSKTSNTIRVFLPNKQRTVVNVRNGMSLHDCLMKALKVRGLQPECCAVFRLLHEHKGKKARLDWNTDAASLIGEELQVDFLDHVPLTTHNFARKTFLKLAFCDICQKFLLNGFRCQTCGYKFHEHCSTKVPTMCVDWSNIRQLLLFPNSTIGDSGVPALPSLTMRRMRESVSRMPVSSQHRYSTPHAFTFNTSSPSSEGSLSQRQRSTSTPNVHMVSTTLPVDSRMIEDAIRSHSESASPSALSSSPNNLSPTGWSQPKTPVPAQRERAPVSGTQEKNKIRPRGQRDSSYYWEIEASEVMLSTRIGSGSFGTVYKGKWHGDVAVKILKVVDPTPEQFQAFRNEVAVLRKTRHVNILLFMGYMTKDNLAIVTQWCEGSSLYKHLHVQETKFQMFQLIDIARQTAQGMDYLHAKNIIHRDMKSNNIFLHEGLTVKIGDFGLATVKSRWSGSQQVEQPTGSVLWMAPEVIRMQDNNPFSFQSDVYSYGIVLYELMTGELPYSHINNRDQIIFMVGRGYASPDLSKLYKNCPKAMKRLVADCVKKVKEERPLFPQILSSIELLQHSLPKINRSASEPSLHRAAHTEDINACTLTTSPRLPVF

inhibition at 5 µM (CRAF): ≥ 50%
inhibition at 5 µM (RON): ≥ 50%
inhibition at 5 µM (FMS): ≥ 50%
inhibition at 5 µM (MET): ≥ 50%
inhibition at 5 µM (P38-α): ≥ 50%
inhibition at 5 µM (FLT1): ≥ 50%
inhibition at 5 µM (PDGFR-α): ≥ 50%
inhibition at 5 µM (FLT3): ≥ 50%
inhibition at 5 µM (FLT4): ≥ 50%
inhibition at 5 µM (DDR2): ≥ 50%
inhibition at 5 µM (RET): ≥ 50%
inhibition at 5 µM (KIT [1]): ≥ 50%
inhibition at 5 µM (EPHA2): ≥ 50%
inhibition at 5 µM (KDR): ≥ 50%
Compound: CNC(=O)c1cc(Oc2ccc(NC(=O)c3nc(C(F)(F)F)[nH]c3-c3ccc(F)cc3)cc2)ccn1 [Inhibitor I-6, 4-(4-{[5-(4-Fluoro-phenyl)-2-trifluoromethyl-3H-imidazole-4-carbonyl]-amino}-phenoxy)-pyridine-2-carboxylic acid methylamide]

Compound: Cc1ccc(NC(=O)c2[nH]c(C(F)(F)F)nc2-c2ccc(F)cc2)cc1Nc1ccc2ncn(C)c(=O)c2c1 [KIN-035]
inhibition of KIT (KIT [2]): XXXX (XXXX > 90% @ 1 μM)
inhibition of p38-alpha (p38-alpha): XXXX (XXXX > 90% @ 1 μM)
inhibition of BRAF (BRAF): XXXX (XXXX > 90% @ 1 μM)
inhibition of CDK11 (CDK11): XX (XX > 50% @ 1 μM)
inhibition of PDGFRB (PDGFRB): XXX (XXX > 75% @ 1 μM)
inhibition of CSF1R (CSF1R): XXX (XXX > 75% @ 1 μM)
inhibition of ERBB4 (ERBB4): X (X > 25% @ 1 μM)
inhibition of MKNK1 (MKNK1): XX (XX > 50% @ 1 μM)

Compound: Cc1ccc(-c2nc(C(F)(F)F)[nH]c2C(=O)Nc2ccc(C)c(Nc3ccc4ncn(C)c(=O)c4c3)c2)cc1F [KIN-038]
inhibition of CDK3 (CDK3): X (X > 25% @ 1 μM)
inhibition of KIT (KIT [2]): XXXX (XXXX > 90% @ 1 μM)
inhibition of p38-alpha (p38-alpha): XX (XX > 50% @ 1 μM)
inhibition of BRAF (BRAF): XXX (XXX > 75% @ 1 μM)
inhibition of IKK-alpha (IKK-alpha): X (X > 25% @ 1 μM)
inhibition of ULK2 (ULK2): X (X > 25% @ 1 μM)
inhibition of CDK11 (CDK11): X (X > 25% @ 1 μM)
inhibition of PDGFRB (PDGFRB): XX (XX > 50% @ 1 μM)
inhibition of MKNK1 (MKNK1): X (X > 25% @ 1 μM)
